Test results as given in US20080248548A1, “MODULATION OF PROTEIN FUNCTIONALITIES” (priority 2007, published 2008).

Target: T1, p38 MAP kinase (Homo sapiens, UniProt Q16539)
T1 construct: made in house; host or cells: E. coli
Assay: P38 MAP kinase binding assay (competition with fluorescent probe SKF 86002)
Settings: inhibition assigned as time-dependent if the IC50 values decrease with the reaction time (more than two-fold in four hours)
Method: Thus, the ability of a small molecule to block fluoroprobe binding provides an experimental readout of binding to the switch control pocket. […] The reaction was initiated by addition of the enzyme. […] By comparison of rfu (relative fluorescence unit) values with that of a control (in the absence of small molecule modulators), the percentage of inhibition at each concentration of the small molecules were calculated. IC50 values for the small molecule modulators were calculated from the % inhibition values obtained at a range of concentrations of the small molecule modulators using Prism. When time-dependent inhibition was assessed, the plate was read at multiple reaction times such as 0.5, 1, 2, 3, 4 and 6 hours. The IC50 values were calculated at each time point. An inhibition was assigned as time-dependent if the IC50 values decrease with the reaction time (more than two-fold in four hours).

T1 sequence (Q16539 whole entry): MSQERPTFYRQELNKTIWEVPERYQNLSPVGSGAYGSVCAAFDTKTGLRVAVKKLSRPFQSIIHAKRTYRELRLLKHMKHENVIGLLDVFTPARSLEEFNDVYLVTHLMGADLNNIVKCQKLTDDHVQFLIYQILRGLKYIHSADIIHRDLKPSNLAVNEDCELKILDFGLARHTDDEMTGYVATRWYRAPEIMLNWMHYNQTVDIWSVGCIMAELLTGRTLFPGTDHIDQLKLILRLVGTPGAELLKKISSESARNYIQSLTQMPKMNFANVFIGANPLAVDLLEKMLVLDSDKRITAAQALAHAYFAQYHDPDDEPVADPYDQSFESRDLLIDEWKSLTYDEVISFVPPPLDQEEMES

| Time-dependent | Compound |
| --- | --- |
| No | CC1(C(=O)O)CC2(C)CC(C)(C1)C(=O)N(Cc1cccc(-n3nc(C(C)(C)C)cc3NC(=O)Nc3cccc4ccccc34)c1)C2=O (stereo not shown) [Example 11] |
| No | CC1(C(=O)O)CC2(C)CC(C)(C1)C(=O)N(Cc1cccc(-n3nc(C(C)(C)C)cc3NC(=O)Nc3ccc(Cl)cc3)c1)C2=O (stereo not shown) [Example 12] |
| Yes | CC(C)(C)c1cc(NC(=O)Nc2cccc3ccccc23)n(-c2cccc(CC(=O)N3CCOCC3)c2)n1 [Example 21, 1-{3-tert-butyl-1-[3-(2-morpholino-2-oxoethyl)phenyl)-1H-pyrazol-5-yl}-3-(naphthalene-1-yl)urea] |
| No | CC(C)(C)c1cc(NC(=O)Nc2cccc3ccccc23)n(-c2ccc(CN)cc2)n1 [Example 45, 1-{3-tert-butyl-1-[4-(aminomethyl)phenyl]-1H-pyrazol-5-yl}-3-(naphthalen-1-yl)urea] |
